# Measured values reported in patent publication US8114408B2 (priority 2007, dated 2012).
# Tested on: mice
# Conditions: mouse, in vivo, sc
substance,measurement,value
3 (RRQRRF) [compound 3],"immune response in immunized mice (ELISA, FIG. 2)",either an immune response occurred only in some individuals or a weak immune response was shown
